molecular target: T1, IRAK4 (Homo sapiens, UniProt Q9NWZ3); assay: RBC HotSpot Kinase Assay, IRAK4; format: biochemical; set-up: purchased Reaction Biology (RBC), HotSpot kinase assay; settings: isolated kinase, 33P-ATP
T1 sequence (Q9NWZ3 1-460): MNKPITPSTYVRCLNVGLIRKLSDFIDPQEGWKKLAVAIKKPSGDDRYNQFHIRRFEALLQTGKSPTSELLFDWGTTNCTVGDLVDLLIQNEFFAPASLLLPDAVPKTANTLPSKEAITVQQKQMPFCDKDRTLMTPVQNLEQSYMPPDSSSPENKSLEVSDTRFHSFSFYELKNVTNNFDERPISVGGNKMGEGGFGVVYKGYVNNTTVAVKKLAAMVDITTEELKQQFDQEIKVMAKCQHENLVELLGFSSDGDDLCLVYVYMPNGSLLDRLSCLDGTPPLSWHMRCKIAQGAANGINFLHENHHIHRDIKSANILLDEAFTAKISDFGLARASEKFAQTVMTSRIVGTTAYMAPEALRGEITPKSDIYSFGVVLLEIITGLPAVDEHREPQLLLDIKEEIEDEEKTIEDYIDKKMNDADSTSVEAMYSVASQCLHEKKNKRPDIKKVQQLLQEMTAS
Procedure, shortened: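 Functional radiometric activity assay: kinase + substrate + cofactors in Hepes pH 7.5/MgCl2/EGTA/Brij35/BSA/Na3VO4/DTT, 1% DMSO; cmpd preincubation 20 min RT; 33P-ATP start, 2 h RT; P81 filter-binding readout.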

Structure (SMILES) | IC50 [nM]
CC(O)(c1cn2c(-c3cccc(N[C@H]4CNC[C@@H]4F)n3)cnc2cn1)C(F)(F)F (single isomer, unassigned) [Compound 77] | 3
CC(O)(c1cn2c(-c3cccc(N[C@H]4CNC[C@@H]4F)n3)cnc2cn1)C(F)(F)F (single isomer, unassigned) [Compound 78] | < 0.5
CC(O)(c1cn2c(-c3cccc(N[C@H]4CNCC[C@@H]4F)n3)cnc2cn1)C(F)(F)F (single isomer, unassigned) [Compound 80] | 3
CC(O)(c1cn2c(-c3cccc(N[C@@H]4CCCNC4)n3)cnc2cn1)C(F)(F)F (single isomer, unassigned) [Compound 81] | < 0.5
CC1(c2cn3c(-c4cccc(N[C@H]5CNC[C@@H]5F)n4)cnc3cn2)CC1 [Compound 1, N-((3S,4S)-4-fluoropyrrolidin-3-yl)-6-(6-(1-methylcyclopropyl)imidazo[1,2-a]pyrazin-3-yl)pyridin-2-amine] | 0.5
CC1(c2cn3c(-c4cccc(N[C@@H]5CCNC5)n4)cnc3cn2)CC1 [Compound 3, (R)-6-(6-(1-methylcyclopropyl)imidazo[1,2-a]pyrazin-3-yl)-N-(pyrrolidin-3-yl)pyridin-2-amine] | 0.9
CC1(c2cn3c(-c4cccc(N[C@H]5CNCC56CC6)n4)cnc3cn2)CC1 [Compound 5, (R)-N-(6-(6-(1-methylcyclopropyl)imidazo[1,2-a]pyrazin-3-yl)pyridin-2-yl)-5-azaspiro[2.4]heptan-7-amine] | < 0.5
FC(F)(F)C1(c2cn3c(-c4cccc(N[C@@H]5CCNC5)n4)cnc3cn2)CC1 [Compound 10, (R)-N-(pyrrolidin-3-yl)-6-(6-(1-(trifluoromethyl)cyclopropyl)imidazo[1,2-a]pyrazin-3-yl)pyridin-2-amine] | 2
FC(F)c1cn2c(-c3cccc(N[C@H]4CNC[C@@H]4F)n3)cnc2cn1 [Compound 16, 6-(6-(difluoromethyl)imidazo[1,2-a]pyrazin-3-yl)-N-((3S,4S)-4-fluoropyrrolidin-3-yl)pyridin-2-amine] | 1
FC(F)c1cn2c(-c3cccc(N[C@H]4CNCC[C@@H]4F)n3)cnc2cn1 [Compound 25, 6-(6-(difluoromethyl)imidazo[1,2-a]pyrazin-3-yl)-N-((3S,4S)-4-fluoropiperidin-3-yl)pyridin-2-amine] | 1
CC(C)(O)c1cn2c(-c3cccc(N[C@@H]4CCCNC4)n3)cnc2cn1 [Compound 30, (R)-2-(3-(6-(piperidin-3-ylamino)pyridin-2-yl)imidazo[1,2-a]pyrazin-6-yl)propan-2-ol] | < 0.5
CC(C)(O)c1cn2c(-c3cccc(N[C@H]4CNCC[C@@H]4F)n3)cnc2cn1 [Compound 31, 2-(3-(6-(((3S,4S)-4-fluoropiperidin-3-yl)amino)pyridin-2-yl)imidazo[1,2-a]pyrazin-6-yl)propan-2-ol] | < 0.5
CC(C)(O)c1cn2c(-c3nc(N[C@H]4CNC[C@@H]4F)c(F)cc3F)cnc2cn1 [Compound 33, 2-(3-(3,5-difluoro-6-(((3S,4S)-4-fluoropyrrolidin-3-yl)amino)pyridin-2-yl)imidazo[1,2-a]pyrazin-6-yl)propan-2-ol] | < 0.5
CC(C)(O)c1cn2c(-c3nc(N[C@@H]4CCCNC4)c(F)cc3F)cnc2cn1 [Compound 34, (R)-2-(3-(3,5-difluoro-6-(piperidin-3-ylamino)pyridin-2-yl)imidazo[1,2-a]pyrazin-6-yl)propan-2-ol] | 2
CC(C)(O)c1cn2c(-c3nc(N[C@H]4CNCC[C@@H]4F)c(F)cc3F)cnc2cn1 [Compound 35, 2-(3-(3,5-difluoro-6-(((3S,4S)-4-fluoropiperidin-3-yl)amino)pyridin-2-yl)imidazo[1,2-a]pyrazin-6-yl)propan-2-ol] | 0.8
FC(F)(F)COc1cn2c(-c3cccc(N[C@@H]4CCNC4)n3)cnc2cn1 [Compound 38, (R)-N-(pyrrolidin-3-yl)-6-(6-(2,2,2-trifluoroethoxy)imidazo[1,2-a]pyrazin-3-yl)pyridin-2-amine] | 0.8
Cn1cc(-c2cn3c(-c4cccc(N[C@@H]5CCCNC5)n4)cnc3cn2)cn1 [Compound 43, (R)-6-(6-(1-methyl-1H-pyrazol-4-yl)imidazo[1,2-a]pyrazin-3-yl)-N-(piperidin-3-yl)pyridin-2-amine] | 12
F[C@H]1CNC[C@@H]1Nc1cccc(-c2cnc3cnc(C4CC4)cn23)n1 [Compound 50, 6-(6-cyclopropylimidazo[1,2-a]pyrazin-3-yl)-N-((3S,4S)-4-fluoropyrrolidin-3-yl)pyridin-2-amine] | 0.6
F[C@H]1CCNC[C@@H]1Nc1cccc(-c2cnc3cnc(C4CC4)cn23)n1 [Compound 51, 6-(6-cyclopropylimidazo[1,2-a]pyrazin-3-yl)-N-((3S,4S)-4-fluoropiperidin-3-yl)pyridin-2-amine] | 1
Cn1cc(-c2cn3c(-c4cccc(N[C@H]5CNC[C@@H]5F)n4)cnc3cn2)cn1 [Compound 52, N-((3S,4S)-4-fluoropyrrolidin-3-yl)-6-(6-(1-methyl-1H-pyrazol-4-yl)imidazo[1,2-a]pyrazin-3-yl)pyridin-2-amine] | 1
FC(F)COc1cn2c(-c3cccc(N[C@H]4CNC[C@@H]4F)n3)cnc2cn1 [Compound 58, 6-(6-(2,2-difluoroethoxy)imidazo[1,2-a]pyrazin-3-yl)-N-((3S,4S)-4-fluoropyrrolidin-3-yl)pyridin-2-amine] | 1

More lines, now with the values ahead:

IC50 [nM] | Structure (SMILES)
< 0.5 | CC(O)(c1cn2c(-c3cccc(N[C@H]4CNCC[C@@H]4F)n3)cnc2cn1)C(F)(F)F (single isomer, unassigned) [Compound 82]
6 | O=S1(=O)CCCN1c1cn2c(-c3cccc(N[C@H]4CNCC[C@@H]4F)n3)cnc2cn1 [Compound 97, 2-(3-(6-(((3S,4S)-4-fluoropiperidin-3-yl)amino)pyridin-2-yl)imidazo[1,2-a]pyrazin-6-yl)isothiazolidine 1,1-dioxide]
38 | O=C1CCCN1c1cn2c(-c3nc(N[C@H]4CNCC[C@@H]4F)c(F)cc3F)cnc2cn1 [Compound 107, 1-[3-[3,5-difluoro-6-[[(3S,4S)-4-fluoro-3-piperidyl]amino]-2-pyridyl]imidazo[1,2-a]pyrazin-6-yl]pyrrolidin-2-one]
13 | O=C1CCCN1c1cn2c(-c3nc(N[C@@H]4CCCNC4)c(F)cc3F)cnc2cn1 [Compound 108, (R)-1-(3-(3,5-difluoro-6-(piperidin-3-ylamino)pyridin-2-yl)imidazo[1,2-a]pyrazin-6-yl)pyrrolidin-2-one]
4 | O=C1NCCN1c1cn2c(-c3cccc(N[C@H]4CNCC[C@@H]4F)n3)cnc2cn1 [Compound 118, 1-(3-(6-(((3S,4S)-4-fluoropiperidin-3-yl)amino)pyridin-2-yl)imidazo[1,2-a]pyrazin-6-yl)imidazolidin-2-one]
10 | O=C1CCCN1c1cn2c(-c3cccc(N[C@H]4CNCC[C@@H]4F)n3)cnc2cn1 [Compound 119, 1-(3-(6-(((3S,4S)-4-fluoropiperidin-3-yl)amino)pyridin-2-yl)imidazo[1,2-a]pyrazin-6-yl)pyrrolidin-2-one]
5 | O=C1CCCN1c1cn2c(-c3cccc(N[C@H]4CNC[C@@H]4F)n3)cnc2cn1 [Compound 121, 1-(3-(6-(((3S,4S)-4-fluoropyrrolidin-3-yl)amino)pyridin-2-yl)imidazo[1,2-a]pyrazin-6-yl)pyrrolidin-2-one]
0.7 | CC(C)(C)c1cn2c(-c3nc(N[C@H]4CNC[C@@H]4F)c(F)cc3F)cnc2cn1 [Compound 125]
2 | CC(C)(C)c1cn2c(-c3nc(N[C@@H]4CCCNC4)c(F)cc3F)cnc2cn1 [Compound 126, (R)-6-(6-(tert-butyl)imidazo[1,2-a]pyrazin-3-yl)-3,5-difluoro-N-(piperidin-3-yl)pyridin-2-amine]
2 | CC(C)(C)c1cn2c(-c3nc(N[C@H]4CNCC[C@@H]4F)c(F)cc3F)cnc2cn1 [Compound 127, 6-(6-(tert-butyl)imidazo[1,2-a]pyrazin-3-yl)-3,5-difluoro-N-((3S,4S)-4-fluoropiperidin-3-yl)pyridin-2-amine]
1 | CC(C)(C)c1cn2c(-c3cccc(N[C@@H]4CCCNC4)n3)cnc2cn1 [Compound 129, (R)-6-(6-(tert-butyl)imidazo[1,2-a]pyrazin-3-yl)-N-(piperidin-3-yl)pyridin-2-amine]
3 | CC(C)(C)c1cn2c(-c3cccc(N[C@H]4CNCC[C@@H]4F)n3)cnc2cn1 [Compound 130, 6-(6-(tert-butyl)imidazo[1,2-a]pyrazin-3-yl)-N-((3S,4S)-4-fluoropiperidin-3-yl)pyridin-2-amine]

From patent publication US12612410B2 (CHILDREN'S HOSPITAL MEDICAL CENTER, priority 2020, dated 2026)
